Test results taken from US4370338A (priority 1980, dated 1983).
Like-named read-outs stand apart in the source and are kept apart here.

Tests used:
[1] = tested on: convulsions caused by strychnine; assay: Strychnine convulsions in the rat, intraperitoneal; type: in vivo, rat (male CD, Charles River); conditions: for ED50: Rattus norvegicus, ip, read-out: ED50 Strychnine (rat ip)
Method: (§1) In the case of the male rat CD (Charles River) of 200-230 g, the convulsions are caused by the subcutaneous injection either of 500 mg/kg of isoniazide (INH) or of 1.5 mg/kg of a strychnine in the form of the sulfate. According to the protocol described by J. L. Costa et al. (Adv. Biochem., Pharmacol., 14, 113, 1975), the product to be tested is administered intraperitoneally 25 minutes after the isoniazide and 5 minutes before the strychnine. The number of animals having shown convulsions is registered during an observation period of 60 minutes after the injection of the isoniazide and 25 minutes after the injection of the strychnine.
(§2) The results obtained are collected in the following Table 1, wherein there are also given, for comparison, the results provided by two reference anticonvulsants (valproic acid, phenobarbital).

[2] = tested on: convulsions caused by supramaximal electric shock (ESM); assay: Supramaximal electric shock (ESM) convulsions in the mouse, oral; type: in vivo, mouse (male CD1, Charles River); conditions: 1.5 h, read-out: ED50 E.S.M. (mouse orally)
Method: These effects have been shown in vivo on the mouse and the rat. In the case of the mouse, the product is administered orally, in increasing doses, to batches of 10 male mice CD1 (Charles River) of 20-27 g, 90 minutes before exposure to a supramaximal electric shock (ESM), according to the method described by G. M. Everett and R. K. Richards (J. Pharmacol, Exptl. Therap. 81, 402, 1944).
as §2

[3] = tested on: convulsions caused by isoniazide (INH); assay: animal or person; type: in vivo, rat (male CD, Charles River); conditions: for ED50: 25 min, rat, ip, 25 minutes after 500 mg/kg sc isoniazide, dose protecting 50% of animals, read-out: ED50 I.N.H. (rat ip)
Method: as §1

[4] = tested on: male mouse CD1; assay: Test of the 4 plates (anxiolytic activity); type: in vivo, Charles River); conditions: 90 minutes before test, vs control group
Method: The anxiolytic activity of the product has been shown on the mouse, by use of the method called the test of the 4 plates, described by J. R. Boissier et al. (Europ. J. Pharmacol., 4, 145, 1968).
90 minutes after oral administration of the product, the animal undergoing the test (male mouse CD1 Charles River of 20-27 g) is placed in a box the base or floor of which is formed of four separated metal plates. Each time the animal passes from one plate to another, all the plates are electrified. The animal rapidly associates displacement and an electric shock and stays immovable on one of the plates. The number of crossings effected by the mouse in 2 minutes is thus determined.
The animals are divided into groups of 20 mice, the control group receiving only the vehicle. The results obtained for the treated groups are expressed by a percentage increase of the number of passages with respect to the control group and are collected in Table 2 below.

In the case of CCCC(CCC)C(=O)O [Valproic acid], the “ED50 Strychnine (rat ip), result in words” value ([1]; rat, inactive at 600 (mg/kg)) is reported as “inactive”, the ED50 ([2]; Mus musculus, po) is reported as 450 mg/kg and the ED50 [3] is reported as 180 mg/kg.

CCC1(c2ccccc2)C(=O)NC(=O)NC1=O [Phenobarbital] was tested, and the ED50 [1] was 33 mg/kg, the ED50 ([2]; Mus musculus, po) was 26 mg/kg and the ED50 [3] was 16 mg/kg.

Nc1nc2ccc(OC(F)(F)F)cc2s1 [2-Amino-6-trifluoromethoxy-benzothiazole] was tested, and the ED50 [1] was 8.4 mg/kg, the “% increase of the number of passages” value ([4]; 5 mg/kg orally) was 50% and the “% increase of the number of passages” value ([4]; 10 mg/kg orally) was 61%. The “% increase of the number of passages” value ([4]; 20 mg/kg orally) was 100%, the “% increase of the number of passages” value ([4]; 25 mg/kg orally (first line printed 25)) was 162% and the “% increase of the number of passages” value ([4]; 25 mg/kg orally (second line printed 25)) was 215%. The ED50 ([2]; mouse, oral, 90 minutes before supramaximal electric shock, dose protecting 50% of animals) was 10 mg/kg, the ED50 [3] was 2.2 mg/kg and the “doses inhibiting INH convulsions, times less than those necessary to inhibit strychnine convulsions” value ([3]; INH versus strychnine convulsions) was 4 times.
